Measured values reported in patent publication US20200289474A1, “METHODS OF TREATING PAIN WITH A THIAZOLINE ANTI-HYPERALGESIC” (priority 2019, published 2020).
Several values for one entry are separate records, joined by “and”; a condition that tells them apart may be missing. Identical values can stand only once. Entries after “also recorded” stand apart in the source; their conditions may differ. Like-named read-outs stand apart in the source and are kept apart here.

Assays:
[1] = rat 7 day repeat IV dose study; type: in vivo; details: 7 day IV
Description: In a third study, SD rats (3/sex/group) were administered Compound 1 IV via the tail vein for 7 days at doses of 0, 75 or 150 mg/kg/day. The vehicle was 15% dimethylacetamide, 85% phosphate buffered saline. Blood was collected from all surviving animals for toxicokinetic analysis approximately 2 hours after the last dose on Day 7.

[2] = system: incision-induced hyperalgesia; assay: mouse model of severe incision; type: in vivo; details: 10 mg/kg IP daily for 15 days; Days 1, 3, 6, 8, 10, 13, 15 and 21
Description: (§1) Two incisional pain models were used to assess Compound 1 effects on hyperalgesia. The first model is referred to as the Brennan model in which, under anesthesia, a 1 cm longitudinal incision to the skin and underlying fascia of a rat hindpaw is made. The second is a variation but is a more invasive procedure in which the skin and muscle are spread apart using forceps which creates a longer-lasting hypersensitivity.
In a mouse model of severe incision (tissue and muscle spread with forceps), animals were at baseline for mechanical thresholds prior to incision and then given a daily dose of Compound 1 (10 mg/kg IP) or vehicle for 15 days.

[3] = dog 7-day repeat dose PO study; type: in vivo; details: dog 7 Day PO, N = 1
Description: The objective was to develop a preliminary toxicity profile of Compound 1 following daily oral (gavage) administration for 7 days to male and female dogs to support dose selection for a 28-day toxicity study in dogs. Doses were selected based on the results of the MTD phase. Dose levels were 0 (Vehicle Control), 200, 350 and 400 mg/kg (1 dog/sex/group). The vehicle was 0.5% aqueous HPMC.
The animals used in this study were returned to the holding colony

[4] = system: incision-induced hyperalgesia; assay: mouse incisional model (mimicking the Brennan protocol); type: in vivo; details: 10 mg/kg IP QD, Days 1 and 3 after incision
Description: In a mouse incisional model (mimicking the Brennan protocol), animals were baselined for mechanical thresholds prior to incision and then given a daily dose of Compound 1 (10 mg/kg IP QD) or vehicle for 7 days.

[5] = system: incision-induced hyperalgesia; assay: Brennan incisional model, prophylactic paradigm; type: in vivo, rat
Description: as §1
Using the Brennan protocol and a prophylactic paradigm, Compound 1 (3 doses given PO) or vehicle was administered 15 min prior to incision. At the 24-, 48-, and 72-h time points post-incision, mechanical thresholds were obtained (manual von Frey filament, using up/down method).
In a subsequent experiment, the same paradigm was used with Compound 1 administered at a dose of 30 mg/kg PO along with positive control group consisting of celecoxib (30 mg/kg PO), morphine (10 mg/kg SC), and vehicle.

stability in hepatocytes = type: in vitro ADME
Description: Further metabolism work in additional species will be undertaken.

OAT1 = target: T1, OAT1 (Homo sapiens, UniProt Q4U2R8); assay: transporter inhibition, HEK293 cells, probe accumulation; type: in vitro ADME
T1 construct: expressed in transfected cells; host or cells: HEK293 cells
T1 sequence (Q4U2R8 1-563): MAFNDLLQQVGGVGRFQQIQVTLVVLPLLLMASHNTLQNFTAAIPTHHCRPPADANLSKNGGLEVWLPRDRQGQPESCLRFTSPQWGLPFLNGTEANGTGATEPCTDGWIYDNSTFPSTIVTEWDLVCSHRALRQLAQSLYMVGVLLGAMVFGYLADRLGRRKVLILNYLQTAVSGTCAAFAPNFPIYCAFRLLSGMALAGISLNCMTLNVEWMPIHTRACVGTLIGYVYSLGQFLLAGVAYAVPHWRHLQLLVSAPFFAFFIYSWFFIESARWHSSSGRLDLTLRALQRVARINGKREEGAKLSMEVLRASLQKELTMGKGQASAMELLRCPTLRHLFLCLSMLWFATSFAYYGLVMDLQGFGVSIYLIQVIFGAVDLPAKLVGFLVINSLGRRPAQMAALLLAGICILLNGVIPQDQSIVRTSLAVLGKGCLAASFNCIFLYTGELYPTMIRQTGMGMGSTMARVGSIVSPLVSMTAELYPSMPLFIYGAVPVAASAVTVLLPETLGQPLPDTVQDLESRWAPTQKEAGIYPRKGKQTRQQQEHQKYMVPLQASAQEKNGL

lactoperoxidase = lactoperoxidase oxidation (mediated by peroxide); type: biochemical; details: physiological conditions (neutral pH)

With CC1(C)SC(Nc2ccccc2O)=N[C@@H]1C(=O)O.Cl [Compound 1, (R)-2-(2-hydroxyphenylamino)-5,5-dimethyl-4,5-dihydrothiazole-4-carboxylic acid mono-hydrochloride] the “Conc in rat plasma” value ([1]; 75 mg/kg, F, 2 h after last dose Day 7, individual animals, mono-hydrochloride, 75 mg/kg) was 2.67 µg/mL and 3.25 µg/mL and 3.18 µg/mL, the concentration at 2 h ([1]; 75 mg/kg, F, 2 h after last dose Day 7, individual animals, mono-hydrochloride, 75 mg/kg, read-out: Conc in rat plasma) was 12.20 µM and 11.94 µM and the “Conc in rat plasma” value ([1]; 75 mg/kg, M, 2 h after last dose Day 7, individual animals, mono-hydrochloride, 75 mg/kg) was 2.35 µg/mL and 2.38 µg/mL and 4.31 µg/mL. For the same molecule, the concentration at 2 h ([1]; 75 mg/kg, M, 2 h after last dose Day 7, individual animals, mono-hydrochloride, 75 mg/kg, read-out: Conc in rat plasma) was 8.94 µM and 16.18 µM, the “Conc in rat plasma” value ([1]; 150 mg/kg, F, 2 h after last dose Day 7, individual animals, mono-hydrochloride, 150 mg/kg) was 5.99 µg/mL and 2.43 µg/mL and 5.53 µg/mL and the concentration at 2 h ([1]; 150 mg/kg, F, 2 h after last dose Day 7, individual animals, mono-hydrochloride, 150 mg/kg, read-out: Conc in rat plasma) was 22.49 µM and 9.12 µM and 20.76 µM. The “Conc in rat plasma” value ([1]; 150 mg/kg, M, 2 h after last dose Day 7, individual animals, mono-hydrochloride, 150 mg/kg) was 4.28 µg/mL and 6.91 µg/mL and 6.56 µg/mL, the concentration at 2 h ([1]; 150 mg/kg, M, 2 h after last dose Day 7, individual animals, mono-hydrochloride, 150 mg/kg, read-out: Conc in rat plasma) was 25.95 µM and 24.63 µM and the concentration at 2 h ([1]; female, Sprague-Dawley (SD), rat, plasma, iv, 75 mg/kg, 75 mg/kg, F, 2 h after last dose Day 7, individual animals, read-out: Conc in rat plasma) was 2670 ng/mL and 10 µM. The concentration at 2 h ([1]; female, Sprague-Dawley (SD), rat, plasma, iv, 75 mg/kg, 75 mg/kg, F, 2 h after last dose Day 7, read-out: Mean Conc in rat plasma) was 3030 ng/mL, the concentration at 2 h ([1]; female, Sprague-Dawley (SD), rat, plasma, iv, 150 mg/kg, 150 mg/kg, F, 2 h after last dose Day 7, read-out: Mean Conc in rat plasma) was 4650 ng/mL and the concentration at 2 h ([1]; male, Sprague-Dawley (SD), rat, plasma, iv, 75 mg/kg, 75 mg/kg, M, 2 h after last dose Day 7, individual animals, read-out: Conc in rat plasma) was 2350 ng/mL and 8.82 µM. The concentration at 2 h ([1]; male, Sprague-Dawley (SD), rat, plasma, iv, 75 mg/kg, 75 mg/kg, M, 2 h after last dose Day 7, read-out: Mean Conc in rat plasma) was 3010 ng/mL, the concentration at 2 h ([1]; male, Sprague-Dawley (SD), rat, plasma, iv, 150 mg/kg, 150 mg/kg, M, 2 h after last dose Day 7, individual animals, read-out: Conc in rat plasma) was 4280 ng/mL and 16.1 µM and the concentration at 2 h ([1]; male, Sprague-Dawley (SD), rat, plasma, iv, 150 mg/kg, 150 mg/kg, M, 2 h after last dose Day 7, read-out: Mean Conc in rat plasma) was 5920 ng/mL. For the same molecule, the “hyperalgesia (mechanical thresholds)” value [2] was “protected from hyperalgesia”, the AUC0-last ([3]; Day 1, 200 mg/kg, F) was 582 µg·h/mL and the Cmax ([3]; Day 1, 200 mg/kg, F) was 152 µg/mL. For the same molecule, the t1/2 ([3]; Day 1, 200 mg/kg, F) was 1.3 h, the AUC0-last ([3]; Day 1, 200 mg/kg, M) was 538 µg·h/mL and the Cmax ([3]; Day 1, 200 mg/kg, M) was 150 µg/mL. It also gave a t1/2 ([3]; Day 1, 200 mg/kg, M) of 1.1 h, an AUC0-last ([3]; Day 1, 350 mg/kg, F) of 834 µg·h/mL and a Cmax ([3]; Day 1, 350 mg/kg, F) of 228 µg/mL. It also gave a t1/2 ([3]; Day 1, 350 mg/kg, F) of 1.2 h, an AUC0-last ([3]; Day 1, 350 mg/kg, M) of 613 µg·h/mL and a Cmax ([3]; Day 1, 350 mg/kg, M) of 176 µg/mL. It also gave a t1/2 ([3]; Day 1, 350 mg/kg, M) of 1.1 h, an AUC0-last ([3]; Day 1, 400 mg/kg, F) of 464 µg·h/mL and a Cmax ([3]; Day 1, 400 mg/kg, F) of 109 µg/mL. It also gave a t1/2 ([3]; Day 1, 400 mg/kg, F) of 3.9 h, an AUC0-last ([3]; Day 1, 400 mg/kg, M) of 657 µg·h/mL and a Cmax ([3]; Day 1, 400 mg/kg, M) of 167 µg/mL. It also gave a t1/2 ([3]; Day 1, 400 mg/kg, M) of 1.2 h, an AUC0-last ([3]; Day 7, 200 mg/kg, F) of 411 µg·h/mL and a Cmax ([3]; Day 7, 200 mg/kg, F) of 103 µg/mL. The t1/2 ([3]; Day 7, 200 mg/kg, F) was 1.5 h, the AUC0-last ([3]; Day 7, 200 mg/kg, M) was 540 µg·h/mL and the Cmax ([3]; Day 7, 200 mg/kg, M) was 121 µg/mL. It also gave a t1/2 ([3]; Day 7, 200 mg/kg, M) of 1.4 h, an AUC0-last ([3]; Day 7, 350 mg/kg, F) of 738 µg·h/mL and a Cmax ([3]; Day 7, 350 mg/kg, F) of 207 µg/mL. The t1/2 ([3]; Day 7, 350 mg/kg, F) was 2.4 h, the tmax ([3]; Day 7, 350 mg/kg, F) was 30 min and the AUC0-last ([3]; Day 7, 350 mg/kg, M) was 591 µg·h/mL. For the same molecule, the Cmax ([3]; Day 7, 350 mg/kg, M) was 184 µg/mL, the t1/2 ([3]; Day 7, 350 mg/kg, M) was 1.2 h and the AUC0-last ([3]; Day 7, 400 mg/kg, F) was 751 µg·h/mL. The Cmax ([3]; Day 7, 400 mg/kg, F) was 183 µg/mL, the t1/2 ([3]; Day 7, 400 mg/kg, F) was 2.5 h and the AUC0-last ([3]; Day 7, 400 mg/kg, M) was 210 µg·h/mL. For the same molecule, the Cmax ([3]; Day 7, 400 mg/kg, M) was 69 µg/mL, the t1/2 ([3]; Day 7, 400 mg/kg, M) was 1.3 h and the “hyperalgesia (mechanical thresholds)” value [4] was “not hyperalgesic”. For the same molecule, the “hyperalgesia, effect relative to vehicle” value ([5]; 10 mg/kg PO single dose 15 min prior to incision, mono-hydrochloride) was “statistically significant reversal of hyperalgesia; also recorded: statistically significant effect”, the “hyperalgesia, effect relative to vehicle” value ([5]; 30 mg/kg PO single dose) was “full efficacy” and the “hyperalgesia, mechanical thresholds (von Frey) relative to vehicle” value ([5]; 3 doses PO, 15 min prior to incision, 24, 48, 72 h post-incision) was “reversal of hyperalgesia in a dose-dependent manner”. The stability in hepatocytes (stability in hepatocytes; dog hepatocytes, mono-hydrochloride) was “stable; also recorded: metabolic stability”, the stability in hepatocytes (stability in hepatocytes; human hepatocytes, mono-hydrochloride) was “stable; also recorded: metabolic stability” and the stability in hepatocytes (stability in hepatocytes; monkey hepatocytes) was “metabolic stability”. For the same molecule, the stability in hepatocytes (stability in hepatocytes; rat hepatocytes, mono-hydrochloride) was “stable; also recorded: metabolic stability”, the “inhibition” value (OAT1) was “does not inhibit” and the “removal of peroxynitrite in lactoperoxidase oxidation” value (lactoperoxidase) was “catalytically remove peroxynitrite”.
